{
  "source": "patent US20200207734A1",
  "about": "“HETEROCYCLIC COMPOUND AND USE THEREOF” (Takeda Pharmaceutical Company Limited, priority 2017, published 2020)",
  "data": [
    {"target": "T1, human orexin type 2 receptor (Homo sapiens, UniProt O43614)", "T1 construct": "human orexin type 2 receptor cDNA was inserted into pcDNA3.1(+) plasmid vector (Invitrogen); expressed in transfected cells", "T1 sequence (O43614 1-444)": "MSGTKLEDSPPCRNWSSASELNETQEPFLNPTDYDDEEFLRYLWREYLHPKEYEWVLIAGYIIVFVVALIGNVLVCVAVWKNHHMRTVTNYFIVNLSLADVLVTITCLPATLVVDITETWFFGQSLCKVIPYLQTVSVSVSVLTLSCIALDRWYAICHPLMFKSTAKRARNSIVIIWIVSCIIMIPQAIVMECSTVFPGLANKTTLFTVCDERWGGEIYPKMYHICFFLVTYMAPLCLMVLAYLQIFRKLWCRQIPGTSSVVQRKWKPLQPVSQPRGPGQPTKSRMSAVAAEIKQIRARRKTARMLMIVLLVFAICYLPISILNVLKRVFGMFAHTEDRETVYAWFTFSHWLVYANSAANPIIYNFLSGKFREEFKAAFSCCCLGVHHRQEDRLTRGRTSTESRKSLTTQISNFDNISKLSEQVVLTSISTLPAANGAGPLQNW", "assay": "Measurement of orexin type 2 receptor agonist activity (calcium fluorescence, CHO cells expressing hOX2R)", "format": "cell-based", "conditions": "test compound 3 μM; CHO cells expressing human OX2 receptor; DMSO = 0%, orexin A (human) = 100%", "from_the_text": "To obtain a cell clone stably expressing human orexin type 2 receptor, human orexin type 2 receptor cDNA was inserted into pcDNA3.1(+) plasmid vector (Invitrogen), and a plasmid DNA for expression of human orexin type 2 receptor (pcDNA3.1(+)/hOX2R) was cloned. The plasmid DNA was introduced into CHO-dhfr cell by an electroporation method, and human orexin type 2 receptor expressing clone cells were obtained by limiting dilution method by using G418 drug resistance as a selection marker.\nCHO cells forcibly expressing human OX2 receptor were seeded in each well of 384 well black transparent bottom plate (BD Falcon) at 7,500 cells/well, and cultured for one day in a 5% CO2 incubator at 37° C. After removal of the medium in the cell plate, assay buffer A containing a calcium indicator (HBSS (Thermo Fisher Scientific), 20 mM HEPES (Thermo Fisher Scientific), 0.1% BSA (Wako Pure Chemical Industries, Ltd. or Sigma-Aldrich), 2.5 μg/mL Fluo-4 AM (DOJINDO Chemical), 0.08% Pluronic F127 (DOJINDO Chemical), 1.25 mM probenecid (DOJINDO Chemical)) was added at 30 μL/well. The plate was stood for 30 min in a 5% CO2 incubator at 37° C., and further stood at room temperature for 30 min. A test compound prepared by diluting with assay buffer B (HBSS, 20 mM HEPES, 0.1% BSA) was added at 10 μL/well, and the fluorescence value was measured by FDSSμCELL (Hamamatsu Photonics K.K.) every one sec for 1 min, and thereafter every two sec for 1 min 40 sec. The activity (%) of the test compound was calculated assuming that variation in the fluorescence value when DMSO was added instead of the test compound was 0%, and variation in the fluorescence value when orexin A (human) (PEPTIDE INSTITUTE, INC.) was added at the final concentration of 10 nM was 100%.", "units": {"OX2R agonist activity (3 μM, %)": "%"}, "values": [
      {"compound": "CS(=O)(=O)N[C@H]1CCCN(C(=O)C2CC2)[C@H]1Cc1cccc(-c2ccccc2)c1", "note": "(relative stereo) [Example 93, N-(cis-2-(biphenyl-3-ylmethyl)-1-(cyclopropylcarbonyl)piperidin-3-yl)methanesulfonamide]", "OX2R agonist activity (3 μM, %)": 101},
      {"compound": "CC(C)C(=O)N1CCC[C@H](NS(C)(=O)=O)[C@@H]1Cc1cccc(-c2ccccc2)c1", "note": "(relative stereo) [Example 95, N-(cis-2-(biphenyl-3-ylmethyl)-1-isobutyrylpiperidin-3-yl)methanesulfonamide]", "OX2R agonist activity (3 μM, %)": 97},
      {"compound": "CC(C)OC(=O)N1CCC[C@H](NS(C)(=O)=O)[C@@H]1Cc1cccc(-c2cc(F)ccc2F)n1", "note": "(relative stereo) [Example 100, isopropyl cis-2-((6-(2,5-difluorophenyl)pyridin-2-yl)methyl)-3-((methylsulfonyl)amino)piperidine-1-carboxylate]", "OX2R agonist activity (3 μM, %)": 107},
      {"compound": "CS(=O)(=O)N[C@H]1CCN(C(=O)OC2CC2)[C@H]1Cc1cccc(-c2ccccc2)c1", "note": "(relative stereo) [Example 108, cyclopropyl cis-2-(biphenyl-3-ylmethyl)-3-((methylsulfonyl)amino)pyrrolidine-1-carboxylate]", "OX2R agonist activity (3 μM, %)": 69},
      {"compound": "CC(C)OC(=O)N1CCC[C@H](NS(C)(=O)=O)[C@@H]1Cc1cccc(-c2cccc(F)c2F)c1", "note": "(relative stereo) [Example 116, isopropyl cis-2-((2′,3′-difluorobiphenyl-3-yl)methyl)-3-((methylsulfonyl)amino)piperidine-1-carboxylate]", "OX2R agonist activity (3 μM, %)": 106},
      {"compound": "CC(C)OC(=O)N1CCC[C@H](NS(C)(=O)=O)[C@@H]1Cn1ccc(-c2ccccc2)n1", "note": "(relative stereo) [Example 122, isopropyl cis-3-((methylsulfonyl)amino)-2-((3-phenyl-1H-pyrazol-1-yl)methyl)piperidine-1-carboxylate]", "OX2R agonist activity (3 μM, %)": 82},
      {"compound": "CS(=O)(=O)N[C@H]1CCCN(C(=O)OC2CC2)[C@H]1Cc1cccc(-c2ccccc2)c1", "note": "(relative stereo) [Example 126, cyclopropyl cis-2-(biphenyl-3-ylmethyl)-3-((methylsulfonyl)amino)piperidine-1-carboxylate]", "OX2R agonist activity (3 μM, %)": 90},
      {"compound": "CS(=O)(=O)N[C@H]1CCCN(C(=O)Oc2ccccc2)[C@H]1Cc1cccc(-c2ccccc2)c1", "note": "(relative stereo) [Example 145, phenyl cis-2-(biphenyl-3-ylmethyl)-3-((methylsulfonyl)amino)piperidine-1-carboxylate]", "OX2R agonist activity (3 μM, %)": 24},
      {"compound": "COC(=O)N1CCC[C@H](NS(C)(=O)=O)[C@@H]1Cc1cccc(-c2ccsc2)c1", "note": "(relative stereo) [Example 159, methyl cis-3-((methylsulfonyl)amino)-2-(3-(3-thienyl)benzyl)piperidine-1-carboxylate]", "OX2R agonist activity (3 μM, %)": 65},
      {"compound": "CCCS(=O)(=O)N[C@H]1CCCN(C(=O)OC(C)C)[C@H]1Cc1cccc(-c2ccccc2)n1", "note": "(relative stereo) [Example 173, isopropyl cis-2-((6-phenylpyridin-2-yl)methyl)-3-((propylsulfonyl)amino)piperidine-1-carboxylate]", "OX2R agonist activity (3 μM, %)": 68},
      {"compound": "CC(C)OC(=O)N1CCC[C@H](NS(=O)(=O)C2CC2)[C@@H]1Cc1cccc(-c2ccccc2)n1", "note": "(relative stereo) [Example 178, isopropyl cis-3-((cyclopropylsulfonyl)amino)-2-((6-phenylpyridin-2-yl)methyl)piperidine-1-carboxylate]", "OX2R agonist activity (3 μM, %)": 99},
      {"compound": "CC(C)OC(=O)N1CCC[C@H](NS(=O)(=O)CCl)[C@@H]1Cc1cccc(-c2ccccc2)n1", "note": "(relative stereo) [Example 181, isopropyl cis-3-(((chloromethyl)sulfonyl)amino)-2-((6-phenylpyridin-2-yl)methyl)piperidine-1-carboxylate]", "OX2R agonist activity (3 μM, %)": 100},
      {"compound": "CC(C)OC(=O)N1CCC[C@H](NS(=O)(=O)N(C)C)[C@@H]1Cc1cccc(-c2ccccc2)n1", "note": "(relative stereo) [Example 185, isopropyl cis-3-((dimethylsulfamoyl)amino)-2-((6-phenylpyridin-2-yl)methyl)piperidine-1-carboxylate]", "OX2R agonist activity (3 μM, %)": 99},
      {"compound": "C=C(C)c1cccc(C[C@H]2[C@@H](NS(=O)(=O)C3CC3)CCCN2C(=O)OC(C)C)n1", "note": "(relative stereo) [Example 191, isopropyl cis-3-((cyclopropylsulfonyl)amino)-2-((6-(prop-1-en-2-yl)pyridin-2-yl)methyl)piperidine-1-carboxylate]", "OX2R agonist activity (3 μM, %)": 79},
      {"compound": "CN(C)C(=O)N1CCC[C@H](NS(C)(=O)=O)[C@@H]1Cc1cccc(-c2ccccc2)c1", "note": "(relative stereo) [Example 204, cis-2-(biphenyl-3-ylmethyl)-N,N-dimethyl-3-((methylsulfonyl)amino)piperidine-1-carboxamide]", "OX2R agonist activity (3 μM, %)": 95},
      {"compound": "CS(=O)(=O)N[C@H]1CCN(C(=O)C2CC2)[C@H]1Cc1cccc(-c2ccccc2)c1", "note": "(relative stereo) [Example 206, N-(cis-2-(biphenyl-3-ylmethyl)-1-(cyclopropylcarbonyl)pyrrolidin-3-yl)methanesulfonamide]", "OX2R agonist activity (3 μM, %)": 94},
      {"compound": "CC(C)C(=O)N1CC[C@H](NS(C)(=O)=O)[C@@H]1Cc1cccc(-c2ccccc2)c1", "note": "(relative stereo) [Example 209, N-(cis-2-(biphenyl-3-ylmethyl)-1-isobutyrylpyrrolidin-3-yl)methanesulfonamide]", "OX2R agonist activity (3 μM, %)": 106},
      {"compound": "CC(C)OC(=O)N1CCC[C@H](NS(C)(=O)=O)[C@@H]1CC1CCCN(c2ccccc2)C1", "note": "(relative stereo) [Example 214, isopropyl cis-3-((methylsulfonyl)amino)-2-((1-phenylpiperidin-3-yl)methyl)piperidine-1-carboxylate]", "OX2R agonist activity (3 μM, %)": 70},
      {"compound": "CC(C)(C)C(=O)N1CC[C@H](NS(C)(=O)=O)[C@@H]1Cc1cccc(-c2ccccc2)c1", "note": "(relative stereo) [Example 227, N-(cis-2-(biphenyl-3-ylmethyl)-1-(2,2-dimethylpropanoyl)pyrrolidin-3-yl)methanesulfonamide]", "OX2R agonist activity (3 μM, %)": 99},
      {"compound": "CS(=O)(=O)N[C@H]1CCN(C(=O)C2CCC2)[C@H]1Cc1csc(-c2cccc(F)c2)n1", "note": "(relative stereo) [Example 254, N-(cis-1-(cyclobutylcarbonyl)-2-((2-(3-fluorophenyl)-1,3-thiazol-4-yl)methyl)pyrrolidin-3-yl)methanesulfonamide]", "OX2R agonist activity (3 μM, %)": 101},
      {"compound": "CS(=O)(=O)N[C@H]1CCN(C(=O)C2CCC2)[C@H]1Cc1csc(-c2ccccc2F)n1", "note": "(relative stereo) [Example 255, N-(cis-1-(cyclobutylcarbonyl)-2-((2-(2-fluorophenyl)-1,3-thiazol-4-yl)methyl)pyrrolidin-3-yl)methanesulfonamide]", "OX2R agonist activity (3 μM, %)": 101}
    ]}
  ]
}
